A short description of data set [1]: Lipophilicity, log K of the compound in water. The data set is classed as physicochemical. Particulars: buffer.
The test system of data set [2] is Alternaria alternata. As to the kind of experiment: Antifungal activity against Alternaria alternata assessed as inhibition of mycelial growth at 20 ppm at 21 +/- 1 degC measured after 5 days. The class given is functional. Particulars: 120 h, read-out: GI.
The subject of data set [3] is Fusarium culmorum. As to the kind of experiment: Antifungal activity against Fusarium culmorum assessed as inhibition of mycelial growth at 20 ppm at 21 +/- 1 degC measured after 5 days. The class given is functional. Particulars: 120 h, read-out: GI.
Data set [4] concerns Rhizoctonia solani. As to the kind of experiment: Antifungal activity against Rhizoctonia solani assessed as inhibition of mycelial growth at 20 ppm at 21 +/- 1 degC measured after 4 days. The data set is classed as functional. Particulars: 96 h, read-out: GI.
The test system of data set [5] is Fusarium culmorum. Description: Antifungal activity against Fusarium culmorum assessed as inhibition of mycelial growth at 200 ppm at 21 +/- 1 degC measured after 5 days. The class given is functional. As to conditions: 120 h, read-out: GI.
Data set [6] concerns Phytophthora cactorum. As to the kind of experiment: Antifungal activity against Phytophthora cactorum assessed as inhibition of mycelial growth at 20 ppm at 21 +/- 1 degC measured after 5 days. The class given is functional. Particulars: 120 h, read-out: GI.
Data set [7] has as its system Rhizoctonia solani. As to the kind of experiment: Antifungal activity against Rhizoctonia solani assessed as inhibition of mycelial growth at 200 ppm at 21 +/- 1 degC measured after 4 days. The class given is functional. As to conditions: 96 h, read-out: GI.
Data set [8] deals with Botrytis cinerea. Description: Antifungal activity against Botryotinia fuckeliana assessed as inhibition of mycelial growth at 200 ppm at 21 +/- 1 degC measured after 3 days. The data set is classed as functional. As to conditions: 72 h, read-out: GI.
The test system of data set [9] is Alternaria alternata. Description: Antifungal activity against Alternaria alternata assessed as inhibition of mycelial growth at 200 ppm at 21 +/- 1 degC measured after 5 days. As to conditions: 120 h, read-out: GI. The data set is classed as functional.
Data set [10] has as its system Botrytis cinerea. As to the kind of experiment: Antifungal activity against Botryotinia fuckeliana assessed as inhibition of mycelial growth at 20 ppm at 21 +/- 1 degC measured after 3 days. Particulars: 72 h, read-out: GI. The data set is classed as functional.
A short description of data set [11]: Octanol-water partition coefficient, log P of the compound. The data set is classed as physicochemical.
Data set [12] has as its system Phytophthora cactorum. Description: Antifungal activity against Phytophthora cactorum assessed as inhibition of mycelial growth at 200 ppm at 21 +/- 1 degC measured after 5 days. The class given is functional. Particulars: 120 h, read-out: GI.

The structures appear in SMILES notation.

In data set [1], `COc1ccc(NC(=S)c2ccc(O)cc2O)cc1O` came in with a logKw of 2.52. Also, the inhibition of growth at 20 ppm with Alternaria alternata [2], with Fusarium culmorum [3], with Rhizoctonia solani [4], in the data set on Phytophthora cactorum [6] and with Botrytis cinerea [10] was 0% each time. Besides, the inhibition of growth at 200 ppm with Fusarium culmorum [5] was 51%; in the data set on Rhizoctonia solani [7], 51%; in the data set on Botrytis cinerea [8], 51%; in the data set on Alternaria alternata [9], 51%; in the data set with Phytophthora cactorum [12], 21%. The logP – broadly, a log measure of how a compound divides between an organic and an aqueous phase – in data set [11] was found to be 2.39.

(Values after ChEMBL document CHEMBL3046243, “Synthesis, antifungal activity and SAR of N-substituted and N,N-disubstituted 2,4-dihydroxythiobenzamides” (J Pestic Sci, 2006).)
